Source: patent US20260022142A1, “MACROCYCLIC IMMUNOMODULATORS” (Bristol-Myers Squibb Company, priority 2022, published 2026)
Bridge positions count the residues as written; N and C are the ends. Square brackets hold non-standard residues; d marks the D form. Peptide text beside a SMILES is read from it. * marks the point of attachment. Bip = N[C@@H](Cc1ccc(-c2ccccc2)cc1)C(=O)O; Cha = N[C@@H](CC1CCCCC1)C(=O)O; Carboxymethyl = O=C(O)C*; Orn = NCCC[C@H](N)C(=O)O; Aun = NCCCCCCCCCCC(=O)O; Dab = NCC[C@H](N)C(=O)O; Dap = NC[C@H](N)C(=O)O

Target: T1, PD-1/PD-L1 interaction (PE-labeled human PD-L1-Ig binding to Jurkat cell line over-expressing human PD-1) (Homo sapiens, UniProt Q15116)
T1 construct: expressed in transfected cells; host or cells: Jurkat
Experiment: Jurkat-PD-1 Cell Binding High-Content Screening Assay (CBA)
Assay type: cell-based
Details: Jurkat cell line over-expressing human PD-1; PE-labeled PD-L1-Ig 20 nM final; read-out: Jurkat hPD1-PDL1 IC50
Summary of the method: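 Jurkat cells over-expressing human PD-1 (8×10^3 per well, DMEM/10% FCS) preincubated with compound 2 h at 37° C, then PE-labeled human PD-L1-Ig (20 nM final) added for 1 h. Cells fixed with paraformaldehyde, Hoechst-stained, and bound fluorescence quantified by high-content imaging.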

T1 sequence (Q15116 25-288): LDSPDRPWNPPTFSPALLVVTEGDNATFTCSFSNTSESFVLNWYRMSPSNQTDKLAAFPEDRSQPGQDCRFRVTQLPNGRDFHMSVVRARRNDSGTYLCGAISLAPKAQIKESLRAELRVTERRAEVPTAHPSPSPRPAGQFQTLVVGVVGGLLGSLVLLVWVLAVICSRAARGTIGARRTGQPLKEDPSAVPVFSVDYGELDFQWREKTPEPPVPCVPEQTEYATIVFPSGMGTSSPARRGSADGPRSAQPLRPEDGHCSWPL

Row | Compound | IC50
1 | CC(C)C[C@H]1NC(=O)[C@H](CCCN)NC(=O)[C@H](C(C)C)NC(=O)[C@H](Cc2ccc(-c3ccccc3)cc2)NC(=O)[C@H](C(C)C)NC(=O)[C@H](Cc2c[nH]c3ccccc23)NC(=O)[C@H](CC(=O)O)NC(=O)[C@H](Cc2ccc(OCC(=O)O)cc2)NC(=O)[C@H](CN)NC(=O)CSC[C@@H](C(=O)N[C@@H](CCN)C(=O)NCCCCCCCCCCC(=O)O)NC(=O)[C@H]([C@@H](C)O)NC(=O)[C@H](C(C)C)NC(=O)[C@H](CC2CCCCC2)NC(=O)[C@H](Cc2c[nH]cn2)NC1=O [Compound 1075] ({CH2CO}-[Dap]Y(Carboxymethyl)DWV[Bip]V[Orn][dL]H[Cha]VTC[Dab][Aun]-OH; thioether N-14) | 34.6 nM
2 | CC(C)C[C@H]1NC(=O)[C@H](CCCN)NC(=O)[C@H](C(C)C)NC(=O)[C@H](Cc2ccc(-c3ccccc3)cc2)NC(=O)[C@H](C(C)C)NC(=O)[C@H](Cc2c[nH]c3ccccc23)NC(=O)[C@H](CC(=O)O)NC(=O)[C@H](Cc2ccc(OCC(=O)O)cc2)NC(=O)[C@H](CN)NC(=O)CSC[C@@H](C(=O)N[C@@H](CCCN)C(=O)NCCCCCCCCCCC(=O)O)NC(=O)[C@H]([C@@H](C)O)NC(=O)[C@H](C(C)C)NC(=O)[C@H](CC2CCCCC2)NC(=O)[C@H](Cc2c[nH]cn2)NC1=O [Compound 1076] ({CH2CO}-[Dap]Y(Carboxymethyl)DWV[Bip]V[Orn][dL]H[Cha]VTC[Orn][Aun]-OH; thioether N-14) | 44.1 nM
3 | CC(C)C[C@H]1NC(=O)[C@H](CCCN)NC(=O)[C@H](C(C)C)NC(=O)[C@H](Cc2ccc(-c3ccccc3)cc2)NC(=O)[C@H](C(C)C)NC(=O)[C@H](Cc2c[nH]c3ccccc23)NC(=O)[C@H](CC(=O)O)NC(=O)[C@H](Cc2ccc(OCC(=O)O)cc2)NC(=O)[C@H](CN)NC(=O)CSC[C@@H](C(=O)N[C@@H](CCCCN)C(=O)NCCCCCCCCCCC(=O)O)NC(=O)[C@H]([C@@H](C)O)NC(=O)[C@H](C(C)C)NC(=O)[C@H](CC2CCCCC2)NC(=O)[C@H](Cc2c[nH]cn2)NC1=O [Compound 1077] ({CH2CO}-[Dap]Y(Carboxymethyl)DWV[Bip]V[Orn][dL]H[Cha]VTCK[Aun]-OH; thioether N-14) | 46.7 nM
4 | CC(C)C[C@H]1NC(=O)[C@H](CCCN)NC(=O)[C@H](C(C)C)NC(=O)[C@H](Cc2ccc(-c3ccccc3)cc2)NC(=O)[C@H](C(C)C)NC(=O)[C@H](Cc2c[nH]c3ccccc23)NC(=O)[C@H](CC(=O)O)NC(=O)[C@H](Cc2ccc(OCC(=O)O)cc2)NC(=O)[C@H](CN)NC(=O)CSC[C@@H](C(=O)N[C@@H](CC(=O)O)C(=O)NCCCCCCCCCCC(=O)O)NC(=O)[C@H]([C@@H](C)O)NC(=O)[C@H](C(C)C)NC(=O)[C@H](CC2CCCCC2)NC(=O)[C@H](Cc2c[nH]cn2)NC1=O [Compound 1078] ({CH2CO}-[Dap]Y(Carboxymethyl)DWV[Bip]V[Orn][dL]H[Cha]VTCD[Aun]-OH; thioether N-14) | 84.9 nM
5 | CC(C)C[C@H]1NC(=O)[C@H](CCCN)NC(=O)[C@H](C(C)C)NC(=O)[C@H](Cc2ccc(-c3ccccc3)cc2)NC(=O)[C@H](C(C)C)NC(=O)[C@H](Cc2c[nH]c3ccccc23)NC(=O)[C@H](CC(=O)O)NC(=O)[C@H](Cc2ccc(OCC(=O)O)cc2)NC(=O)[C@H](CN)NC(=O)CSC[C@@H](C(=O)N[C@@H](CCC(=O)O)C(=O)NCCCCCCCCCCC(=O)O)NC(=O)[C@H]([C@@H](C)O)NC(=O)[C@H](C(C)C)NC(=O)[C@H](CC2CCCCC2)NC(=O)[C@H](Cc2c[nH]cn2)NC1=O [Compound 1079] ({CH2CO}-[Dap]Y(Carboxymethyl)DWV[Bip]V[Orn][dL]H[Cha]VTCE[Aun]-OH; thioether N-14) | 55.6 nM
6 | CC(C)C[C@H]1NC(=O)[C@H](CCCN)NC(=O)[C@H](C(C)C)NC(=O)[C@H](Cc2ccc(-c3ccccc3)cc2)NC(=O)[C@H](C(C)C)NC(=O)[C@H](Cc2c[nH]c3ccccc23)NC(=O)[C@H](CC(=O)O)NC(=O)[C@H](Cc2ccc(OCC(=O)O)cc2)NC(=O)[C@H](CN)NC(=O)CSC[C@@H](C(=O)N[C@@H](C)C(=O)N[C@@H](CCC(=O)O)C(=O)NCCCCCCCCCCC(=O)O)NC(=O)[C@H]([C@@H](C)O)NC(=O)[C@H](C(C)C)NC(=O)[C@H](CC2CCCCC2)NC(=O)[C@H](Cc2cnc[nH]2)NC1=O [Compound 1080] ({CH2CO}-[Dap]Y(Carboxymethyl)DWV[Bip]V[Orn][dL]H[Cha]VTCAE[Aun]-OH; thioether N-14) | 35.7 nM
7 | CC(C)C[C@H]1NC(=O)[C@H](CCCN)NC(=O)[C@H](C(C)C)NC(=O)[C@H](Cc2ccc(-c3ccccc3)cc2)NC(=O)[C@H](C(C)C)NC(=O)[C@H](Cc2c[nH]c3ccccc23)NC(=O)[C@H](CC(=O)O)NC(=O)[C@H](Cc2ccc(OCC(=O)O)cc2)NC(=O)[C@H](CN)NC(=O)CSC[C@@H](C(=O)N[C@@H](C)C(=O)N[C@@H](CN)C(=O)NCCCCCCCCCCC(=O)O)NC(=O)[C@H]([C@@H](C)O)NC(=O)[C@H](C(C)C)NC(=O)[C@H](CC2CCCCC2)NC(=O)[C@H](Cc2cnc[nH]2)NC1=O [Compound 1081] ({CH2CO}-[Dap]Y(Carboxymethyl)DWV[Bip]V[Orn][dL]H[Cha]VTCA[Dap][Aun]-OH; thioether N-14) | 28.5 nM
8 | CC(C)C[C@H]1NC(=O)[C@H](CCCN)NC(=O)[C@H](C(C)C)NC(=O)[C@H](Cc2ccc(-c3ccccc3)cc2)NC(=O)[C@H](C(C)C)NC(=O)[C@H](Cc2c[nH]c3ccccc23)NC(=O)[C@H](CC(=O)O)NC(=O)[C@H](Cc2ccc(OCC(=O)O)cc2)NC(=O)[C@H](CN)NC(=O)CSC[C@@H](C(=O)N[C@@H](C)C(=O)N[C@@H](CCN)C(=O)NCCCCCCCCCCC(=O)O)NC(=O)[C@H]([C@@H](C)O)NC(=O)[C@H](C(C)C)NC(=O)[C@H](CC2CCCCC2)NC(=O)[C@H](Cc2cnc[nH]2)NC1=O [Compound 1082] ({CH2CO}-[Dap]Y(Carboxymethyl)DWV[Bip]V[Orn][dL]H[Cha]VTCA[Dab][Aun]-OH; thioether N-14) | 24.7 nM
9 | CC(C)C[C@H]1NC(=O)[C@H](CCCN)NC(=O)[C@H](C(C)C)NC(=O)[C@H](Cc2ccc(-c3ccccc3)cc2)NC(=O)[C@H](C(C)C)NC(=O)[C@H](Cc2c[nH]c3ccccc23)NC(=O)[C@H](CC(=O)O)NC(=O)[C@H](Cc2ccc(OCC(=O)O)cc2)NC(=O)[C@H](CN)NC(=O)CSC[C@@H](C(=O)N[C@@H](C)C(=O)N[C@@H](CCCN)C(=O)NCC(=O)NCCCCCCCCCCC(=O)O)NC(=O)[C@H]([C@@H](C)O)NC(=O)[C@H](C(C)C)NC(=O)[C@H](CC2CCCCC2)NC(=O)[C@H](Cc2c[nH]cn2)NC1=O [Compound 1086] ({CH2CO}-[Dap]Y(Carboxymethyl)DWV[Bip]V[Orn][dL]H[Cha]VTCA[Orn]G[Aun]-OH; thioether N-14) | 21 nM
10 | CC(C)C[C@H]1NC(=O)[C@H](CCCN)NC(=O)[C@H](C(C)C)NC(=O)[C@H](Cc2ccc(-c3ccccc3)cc2)NC(=O)[C@H](C(C)C)NC(=O)[C@H](Cc2c[nH]c3ccccc23)NC(=O)[C@H](CC(=O)O)NC(=O)[C@H](Cc2ccc(OCC(=O)O)cc2)NC(=O)[C@H](CN)NC(=O)CSC[C@@H](C(=O)N[C@@H](C)C(=O)N[C@@H](CCC(=O)O)C(=O)NCC(=O)NCCCCCCCCCCC(=O)O)NC(=O)[C@H]([C@@H](C)O)NC(=O)[C@H](C(C)C)NC(=O)[C@H](CC2CCCCC2)NC(=O)[C@H](Cc2c[nH]cn2)NC1=O [Compound 1088] ({CH2CO}-[Dap]Y(Carboxymethyl)DWV[Bip]V[Orn][dL]H[Cha]VTCAEG[Aun]-OH; thioether N-14) | 25 nM
